Data taken from PubChem BioAssay (NCI).
“And” between values parts separate entries of the source, which are not always exact repeats. Identical values can stand only once.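 Test compounds were applied to cells in 96-well plates for 48 hours at 5 doses. GI50 marks 50% less growth. TGI: concentration producing complete growth inhibition.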

How the values were obtained:
Experiment in all cases: DTP human tumour cell line panel, 48 h
IGROV1 ovarian = test system: IGROV1 ovarian
DMS 114 small cell lung = test system: DMS 114 small cell lung
SW-620 colon = test system: SW-620 colon
SK-MEL-5 melanoma = test system: SK-MEL-5 melanoma
RXF 393 renal = test system: RXF 393 renal
SNB-78 CNS = test system: SNB-78 CNS
SK-MEL-28 melanoma = test system: SK-MEL-28 melanoma
SK-OV-3 ovarian = test system: SK-OV-3 ovarian
K-562 leukemia = test system: K-562 leukemia
SR leukemia = test system: SR leukemia

## CCCCCCCCCCCCCCNCC(OCC)OCC
IGROV1 ovarian
  TGI: 30.3 µM
DMS 114 small cell lung
  TGI: 25.7 µM
SW-620 colon
  TGI: 31.9 µM
SK-MEL-5 melanoma
  TGI: 27.9 µM
RXF 393 renal
  TGI: 22.9 µM
SNB-78 CNS
  TGI: 33.5 µM
SK-MEL-28 melanoma
  TGI: 32.5 µM
SK-OV-3 ovarian
  TGI: 32.8 µM

## O=C(NC(=O)c1cc2cc(Br)cc(Br)c2oc1=O)Oc1ccccc1
IGROV1 ovarian
  TGI: > 100 µM
DMS 114 small cell lung
  TGI: > 100 µM
SW-620 colon
  TGI: > 100 µM
SK-MEL-5 melanoma
  TGI: > 100 µM
RXF 393 renal
  TGI: 83.3 µM
SNB-78 CNS
  TGI: > 100 µM
K-562 leukemia
  TGI: > 100 µM
SK-MEL-28 melanoma
  TGI: > 100 µM
SK-OV-3 ovarian
  TGI: > 100 µM

## N#C/C(=C\c1cccc2cnccc12)N1N=NC2C=CC=CC21 (stereo not drawn)
IGROV1 ovarian
  GI50: 2.7 µM
  TGI: > 100 µM
SW-620 colon
  GI50: 3.35 µM
  TGI: > 100 µM
SR leukemia
  GI50: 2.53 µM
  TGI: > 100 µM
SK-MEL-5 melanoma
  GI50: 3.19 µM
  TGI: > 100 µM
RXF 393 renal
  GI50: 2.35 µM
  TGI: 6.97 µM
K-562 leukemia
  GI50: 2.85 µM
  TGI: > 100 µM
SK-MEL-28 melanoma
  GI50: 4.1 µM
  TGI: > 100 µM
SK-OV-3 ovarian
  GI50: 2.08 µM
  TGI: 25.9 µM

## CC12CCC(O)CC1=CCC1C2CCC2(C)C(c3cccnc3)=CCC12 (stereo not drawn)
IGROV1 ovarian
  GI50: > 100 µM
  TGI: > 100 µM
SW-620 colon
  GI50: > 100 µM
  TGI: > 100 µM
SR leukemia
  GI50: 93.9 µM
  TGI: > 100 µM
SK-MEL-5 melanoma
  GI50: 74.2 µM
  TGI: > 100 µM
RXF 393 renal
  GI50: 40.2 µM
  TGI: > 100 µM
K-562 leukemia
  GI50: 76.8 µM
  TGI: > 100 µM
SK-MEL-28 melanoma
  GI50: > 100 µM
  TGI: > 100 µM
SK-OV-3 ovarian
  GI50: > 100 µM
  TGI: > 100 µM

## CC(OC(=O)N(N(CCCl)S(C)(=O)=O)S(C)(=O)=O)c1ccc([N+](=O)[O-])cc1 (stereo not drawn)
IGROV1 ovarian
  GI50: > 96.6 µM
  TGI: > 100 µM
SW-620 colon
  GI50: > 67.9 µM
  TGI: > 100 µM
SR leukemia
  GI50: 26.7 µM
  TGI: > 100 µM
SK-MEL-5 melanoma
  GI50: 16.1 µM
  TGI: 44.7 µM
RXF 393 renal
  GI50: > 100 µM
  TGI: > 100 µM
K-562 leukemia
  GI50: 35.7 µM
  TGI: > 100 µM
SK-MEL-28 melanoma
  GI50: > 100 µM
  TGI: > 100 µM
SK-OV-3 ovarian
  GI50: > 100 µM
  TGI: > 100 µM

## CC/C(CC(=O)CCC(=O)Nc1ccc(C)c(C)c1)=N\NC(=O)C(N)=O
IGROV1 ovarian
  TGI: > 100 µM
DMS 114 small cell lung
  TGI: > 100 µM
SW-620 colon
  TGI: > 100 µM
SR leukemia
  TGI: > 100 µM
SK-MEL-5 melanoma
  TGI: > 100 µM
SNB-78 CNS
  TGI: > 100 µM
K-562 leukemia
  TGI: > 100 µM
SK-MEL-28 melanoma
  TGI: > 100 µM
SK-OV-3 ovarian
  TGI: > 100 µM

## Nc1nc(-c2cc(-c3cccc4ccccc34)nc(N)n2)cc(-c2cccc3ccccc23)n1
IGROV1 ovarian
  TGI: > 100 µM
SW-620 colon
  TGI: > 100 µM
SR leukemia
  TGI: > 100 µM
SK-MEL-5 melanoma
  TGI: > 100 µM
RXF 393 renal
  TGI: > 100 µM
K-562 leukemia
  TGI: > 100 µM
SK-MEL-28 melanoma
  TGI: > 100 µM
SK-OV-3 ovarian
  TGI: > 100 µM

## CCN(CC)CCCNc1[nH]ncc2c(C)c3nc4ccccc4c3cc12
IGROV1 ovarian
  GI50: 1.08 µM
  TGI: 8.16 µM and 6.88 µM
SW-620 colon
  GI50: 0.319 µM and 0.529 µM
  TGI: 2.92 µM and 6.98 µM
SR leukemia
  TGI: 1.12 µM
SK-MEL-5 melanoma
  GI50: 1.41 µM
  TGI: 2.78 µM and 5.05 µM
RXF 393 renal
  GI50: 0.878 µM
  TGI: 2.25 µM and 5.78 µM
K-562 leukemia
  GI50: 0.347 µM and 0.372 µM
  TGI: 1.79 µM and 9.54 µM
SK-MEL-28 melanoma
  GI50: 2.83 µM
  TGI: 13.9 µM and 4.06 µM
SK-OV-3 ovarian
  GI50: 1.31 µM
  TGI: 2.75 µM and 12.6 µM

## Cc1ncc(-c2ccnc(Nc3ccc(S(C)(=O)=O)cc3)n2)n1C(C)C
IGROV1 ovarian
  GI50: 0.758 µM
  TGI: > 7.91 µM
SW-620 colon
  GI50: 1.02 µM
  TGI: > 10 µM
SR leukemia
  GI50: 0.222 µM
  TGI: 2.94 µM
SK-MEL-5 melanoma
  GI50: 0.811 µM
  TGI: 3.29 µM
RXF 393 renal
  GI50: 0.211 µM
  TGI: 0.678 µM
K-562 leukemia
  GI50: 1.59 µM
  TGI: > 10 µM
SK-MEL-28 melanoma
  GI50: 1.28 µM
  TGI: > 5.69 µM
SK-OV-3 ovarian
  GI50: 4.16 µM
  TGI: > 10 µM
